Laboratory results taken from publication PMC6271531 (2014).

What was measured:
[1] = tested on: single stranded oligonucleotide d(CGCGAATTCGCG) (ss) (DNA, single strand) CGCGAATTCGCG; assay: ESI-IM-MS, negative mode; details: NH4+ (100 mM ammonium acetate); 20% methanol, pH 6.7; 1:10 molar ratio (170 µM compound); very low abundance, none at 1:1
[2] = tested on: d(CGCGAATTCGCG)2, Dickerson DNA duplex (ds) (DNA, duplex) CGCGAATTCGCG; assay: ESI-MS, negative mode; details: NH4+ (100 mM ammonium acetate); pH 6.7; equimolar; reference ligand, value not shown

binding [1]	binding [2]	SMILES
weak	–	NCCNC(=O)CCN(CCC(=O)NCCN)CCC(=O)NCCN
–	yes	N=C(N)c1ccc(N=NNc2ccc(C(=N)N)cc2)cc1
weak	–	O=C(CCN(CCC(=O)NCCNC(=S)Nc1ccccc1)CCC(=O)NCCNC(=S)Nc1ccccc1)NCCNC(=S)Nc1ccccc1
